Where a name gives a salt, the structure may show the parent alone.

The molecule `Cl.NCC1CCN(c2cc3c(cc2F)c(=O)n(N)c(=O)n3C2CC2)C1` (centres unmarked) displayed a melting point of 170 to 172 °C.

For the molecule `Cl.Nn1c(=O)c2cc(F)c(N3CCCC3)c(Cl)c2n(C2CC2)c1=O`, the melting point fell in the range of 96 to 98 °C.

As for `CCN[C@@H](C)[C@@H]1CCN(c2c(F)cc3c(=O)n(N)c(=O)n(C4CC4)c3c2C)C1.Cl`, the melting point lay in the range of 210 to 215 °C.

In the case of `Cc1c(N2CCC(CN)C2)c(F)cc2c(=O)n(N)c(=O)n(C3CC3)c12.O=C(O)C(F)(F)F` (centres unmarked), the melting point lay within 82 to 84 °C.

The molecule `Cl.NCC1CCCN(c2c(F)cc3c(=O)n(N)c(=O)n(C4CC4)c3c2Cl)C1` (centres unmarked) displayed a melting point of 131 to 133 °C.

For the molecule `Cc1c(N2CCC(C(C)(C)O)C2)c(F)cc2c(=O)n(N)c(=O)n(C3CC3)c12.Cl` (centres unmarked), the melting point is 116 to 120 °C.

Molecule `Cc1c(N2CCCC2)c(F)cc2c(=O)n(N)c(=O)n(C3CC3)c12.Cl` showed a melting point of 178 to 180 °C.

In turn, `C[C@H](N)[C@@H]1CCN(c2nc3c(cc2F)c(=O)n(N)c(=O)n3C2CC2)C1.Cl` displayed a melting point of more than 260 °C.

`COCC1(CN)CCN(c2c(F)cc3c(=O)n(N)c(=O)n(C4CC4)c3c2C)C1.Cl` (centres unmarked) gave a melting point of 172 to 177 °C.

Molecule `Cc1c(N2CC[C@H]([C@@H](C)N)C2)c(F)cc2c(=O)n(N)c(=O)n(C3CC3)c12.Cl` [Compound 75] registered a melting point of 194 to 196 °C.

Take `Cl.Nn1c(=O)c2cc(F)c(N3CC4CCNCC4C3)nc2n(C2CC2)c1=O` (centres unmarked): the melting point lay within 200 to 203 °C.

The molecule `CN[C@@H](C)[C@@H]1CCN(c2c(F)cc3c(=O)n(N)c(=O)n(C4CC4)c3c2C)C1.Cl` showed a melting point of 153 to 155 °C.

`COC1(C(C)N)CCN(c2c(F)cc3c(=O)n(N)c(=O)n(C4CC4)c3c2C)C1.Cl` (centres unmarked) gave a melting point of 190 to 192 °C.

For the molecule `CN[C@@H](C)[C@@H]1CCN(c2cc3c(c(C)c2F)c(=O)n(N)c(=O)n3C2CC2)C1.Cl`, the melting point is 182 to 185 °C.

The molecule `Cc1c(N2CC[C@@H](C(C)(C)N)C2)c(F)cc2c(=O)n(N)c(=O)n(C3CC3)c12.Cl` gave a melting point of 200 to 202 °C.

`COC1CN(c2c(F)cc3c(=O)n(N)c(=O)n(C4CC4)c3c2C)CC1N.Cl` (centres unmarked) had a melting point of more than 250 °C.

Turning to `COc1c(N2CCC(CN)C2)c(F)cc2c(=O)n(N)c(=O)n(C3CC3)c12.Cl` (centres unmarked), the melting point was in the range of 180 to 182 °C.

With `Cl.N[C@H]1CCN(c2nc3c(cc2F)c(=O)n(N)c(=O)n3C2CC2)C1`, the melting point is 213 to 215 °C.

On to `CC1(CN)CCN(c2c(F)cc3c(=O)n(N)c(=O)n(C4CC4)c3c2Cl)C1` (centres unmarked) (as salt: hydrochloride) [Compound 3, 3-Amino-7-[3-(aminomethyl)-3-methylpyrrolidin-1-yl]-8-chloro-1-cyclopropyl-6-fluoro-1H-quinazoline-2,4-dione hydrochloride], for which the melting point lay in the range of 166 to 168 °C.

`COc1cc2c(=O)n(N)c(=O)n(C3CC3)c2c(F)c1N1CCC(N)C1.Cl` (centres unmarked): the melting point lay in the range of 208 to 210 °C.

`Cl.Cl.NCC1CCCN(c2nc3c(cc2F)c(=O)n(N)c(=O)n3C2CC2)C1` (centres unmarked) yielded a melting point of 152 to 154 °C.

Turning to `Cc1c(N2CCC(C(=O)O)C2)c(F)cc2c(=O)n(N)c(=O)n(C3CC3)c12.O=C(O)C(F)(F)F` (centres unmarked), the melting point is 226 °C (dec.).

The molecule `CC1CCc2c(N3CC[C@H](N)C3)c(F)cc3c(=O)n(N)c(=O)n1c23` (some centres unmarked) (as salt: hydrochloride) registered a melting point of 202 to 204 °C.

Regarding `NC1CCN(c2c(Cl)cc3c(=O)n(N)c(=O)n(C4CC4)c3c2F)C1.O=C(O)C(F)(F)F` (centres unmarked), the melting point lay in the range of 135 to 137 °C.

In turn, `CS(=O)(=O)NCC1CCN(c2c(F)cc3c(=O)n(N)c(=O)n(C4CC4)c3c2Cl)C1` (centres unmarked) [Compound 74, N-[1-(3-Amino-8-chloro-1-cyclopropyl-6-fluoro-2,4-dioxo-1,2,3,4-tetrahydroquinazolin-7-yl)pyrrolidin-3-ylmethyl]methanesulfonamide] showed a melting point of 109 to 112 °C.

`CC(C)(N)[C@@H]1CCN(c2c(F)cc3c(=O)n(N)c(=O)n(C4CC4)c3c2Cl)C1.Cl` came in with a melting point of 117 to 120 °C.

In turn, `Cc1c(N2CC[C@H]([C@H](C)N)C2)c(F)cc2c(=O)n(N)c(=O)n(C3CC3)c12.Cl` gave a melting point of 192 to 194 °C.

As to `Cc1c(N2CCC(C)(N)C2)c(F)cc2c(=O)n(N)c(=O)n(C3CC3)c12.Cl` (centres unmarked), the melting point was 237 to 240 °C.

Molecule `Cc1c(N2CC3C(N)C3C2)c(F)cc2c(=O)n(N)c(=O)n(C3CC3)c12.Cl` (centres unmarked) came in with a melting point of 180 to 182 °C.

As to `Cc1c(N2C[C@@H](CN)[C@H](C)C2)c(F)cc2c(=O)n(N)c(=O)n(C3CC3)c12.Cl` (relative stereo), the melting point was 220 °C.

For the molecule `COc1c(N2CCC(F)(C(C)N)C2)c(F)cc2c(=O)n(N)c(=O)n(C3CC3)c12.Cl` (centres unmarked), the melting point lay within 190 to 192 °C.

For `Cc1c(N2CC3CCCCC3(CN)C2)c(F)cc2c(=O)n(N)c(=O)n(C3CC3)c12.Cl` (centres unmarked), the melting point is more than 250 °C.

In turn, `C[C@@H]1CN(c2c(F)cc3c(=O)n(N)c(=O)n(C4CC4)c3c2Cl)C[C@H]1CN.Cl` (relative stereo) showed a melting point of 215 to 217 °C.

In turn, `COc1c(N2CCC(O)(CN)C2)c(F)cc2c(=O)n(N)c(=O)n(C3CC3)c12.Cl` (centres unmarked) showed a melting point of 202 °C.

`Cc1c(N2CCCC(CCN)C2)c(F)cc2c(=O)n(N)c(=O)n(C3CC3)c12.Cl` (centres unmarked): the melting point came to 200 °C.

With `Cl.NCC1(Cc2ccccc2)CCN(c2c(F)cc3c(=O)n(N)c(=O)n(C4CC4)c3c2Cl)C1` (centres unmarked), the melting point was in the range of 148 to 150 °C.

As to `Cl.Nn1c(=O)c2cc(F)c(C3CCC4CNCC4N3)nc2n(C2CC2)c1=O` (centres unmarked), the melting point lay within 200 to 202 °C.

In turn, `CC(C)NCC1CCN(c2c(F)cc3c(=O)n(N)c(=O)n(C4CC4)c3c2Cl)C1.Cl` (centres unmarked) had a melting point of 125 to 127 °C.

`CS(=O)(=O)NCC1CCN(c2c(F)cc3c(=O)n(N)c(=O)n(C4CC4)c3c2Cl)C1.Cl` (centres unmarked) gave a melting point of 109 to 112 °C.

`Cc1c(N2CC(C(C)N)C(C)(C)C2)c(F)cc2c(=O)n(N)c(=O)n(C3CC3)c12.Cl` (centres unmarked) had a melting point of 246 °C.

As to `CC1CCc2c(N3CC[C@@H]([C@H](C)N)C3)c(F)cc3c(=O)n(N)c(=O)n1c23.Cl` (some centres unmarked), the melting point fell in the range of 197 to 199 °C.

`COc1c(N2C[C@@H](CN)[C@H](C)C2)c(F)cc2c(=O)n(N)c(=O)n(C3CC3)c12.Cl` (relative stereo) registered a melting point of 189 °C.

On to `Cl.N[C@@H]1CN(c2c(F)cc3c(=O)n(N)c(=O)n(C4CC4)c3c2Cl)C[C@H]1C(F)(F)F` (relative stereo), for which the melting point fell in the range of 181 to 183 °C.

As for `Nn1c(=O)c2cc(F)c(N3CCC(=NO)C3)c(Cl)c2n(C2CC2)c1=O` [Compound 65, 3-Amino-8-chloro-1-cyclopropyl-6-fluoro-7-(3-hydroxyimino-pyrrolidin-1-yl)-1H-quinazoline-2,4-dione], the melting point lay within 147 to 149 °C.

`Cc1c(N2CCC(N)C2)c(F)cc2c(=O)n(N)c(=O)n(C3CC3)c12.O=C(O)C(F)(F)F` (centres unmarked) returned a melting point of 110 to 112 °C.

For the molecule `COc1c(N2CCC(N)C2)c(F)cc2c(=O)n(N)c(=O)n(C3CC3)c12.Cl` (centres unmarked), the melting point was in the range of 216 to 218 °C.

Consider `Cc1c(N2CC3CC3(CN)C2)c(F)cc2c(=O)n(N)c(=O)n(C3CC3)c12.Cl` (centres unmarked), for which the melting point was 189 to 194 °C.

`CCn1c(=O)n(N)c(=O)c2ccc(N3CC[C@H](N)C3)c(F)c21.Cl` had a melting point of 248 to 251 °C.

`Cc1c(N2CCCC(CN)C2)c(F)cc2c(=O)n(N)c(=O)n(C3CC3)c12.Cl` (centres unmarked): the melting point lay in the range of 219 to 221 °C.

Molecule `Cl.NC1C2CN(c3nc4c(cc3F)c(=O)n(N)c(=O)n4C3CC3)CC12` (centres unmarked) displayed a melting point of 268 to 270 °C.

On to `COc1c(N2CC(C(C)N)C(C)(C)C2)c(F)cc2c(=O)n(N)c(=O)n(C3CC3)c12.Cl` (centres unmarked), for which the melting point was found to be 230 °C.

For `NC1CCN(c2ccc3c(=O)n(N)c(=O)n(C4CC4)c3c2F)C1.O=C(O)C(F)(F)F` (centres unmarked), the melting point is 210 to 212 °C.

As for `Cl.Nn1c(=O)c2cc(F)c(N3CCC(CNCC(F)(F)F)C3)c(Cl)c2n(C2CC2)c1=O` (centres unmarked), the melting point was in the range of 163 to 164 °C.

Consider `Cc1c(F)c(N2CC[C@H]([C@@H](C)N)C2)cc2c1c(=O)n(N)c(=O)n2C1CC1.Cl`, for which the melting point is 245 to 247 °C.

For the molecule `CCn1c(=O)n(N)c(=O)c2cc(F)c(N3CC[C@@H](C(C)(C)N)C3)cc21.Cl`, the melting point is more than 250 °C.

With `Cl.N[C@@H]1CN(c2c(F)cc3c(=O)n(N)c(=O)n(C4CC4)c3c2Cl)C[C@H]1c1ccccc1` (relative stereo), the melting point is 174 to 175 °C.

As to `COc1c(N2CC(N)C(OC)C2)c(F)cc2c(=O)n(N)c(=O)n(C3CC3)c12.Cl` (centres unmarked), the melting point was more than 250 °C.

For `Cl.Nn1c(=O)c2cc(F)c(N3CCC(N)(c4ccccc4)C3)c(Cl)c2n(C2CC2)c1=O` (centres unmarked), the melting point was in the range of 198 to 200 °C.

Consider `Nc1c(F)c(N2CC[C@H](N)C2)c(F)c2c1c(=O)n(N)c(=O)n2C1CC1` (as salt: hydrochloride) [Compound 11, 7-((S)-3-Aminopyrrolidin-1-yl)-1-cyclopropyl-3,5-diamino-6,8-difluoro-1H-quinazoline-2,4-dione hydrochloride], for which the melting point was 215 to 218 °C (dec.).

For the molecule `NC(=O)C1CCCN(c2c(F)cc3c(=O)n(N)c(=O)n(C4CC4)c3c2Cl)C1` (centres unmarked) [Compound 58, 1-(3-Amino-8-chloro-1-cyclopropyl-6-fluoro-2,4-dioxo-1,2,3,4-tetrahydroquinazolin-7-yl)piperidine-3-carboxylic acid amide], the melting point lay in the range of 141 to 144 °C.

The molecule `Cl.N#Cc1c(N2CCC(N)C2)c(F)cc2c(=O)n(N)c(=O)n(C3CC3)c12` (centres unmarked) yielded a melting point of 277 °C.

The molecule `Cl.NC[C@@H]1CN(c2nc3c(cc2F)c(=O)n(N)c(=O)n3C2CC2)C[C@H]1C(F)(F)F` (relative stereo) yielded a melting point of 214 to 216 °C.

As for `C[C@H](N)[C@@H]1CCN(c2c(F)cc3c(=O)n(N)c(=O)n(C4CC4)c3c2Cl)C1.Cl`, the melting point was in the range of 164 to 166 °C.

`COc1c(N2C[C@@H](CN)[C@@H](F)C2)c(F)cc2c(=O)n(N)c(=O)n(C3CC3)c12.Cl` (relative stereo) yielded a melting point of 169 to 179 °C.

`COc1c(N2C[C@@H](CN)[C@H](C(F)(F)F)C2)c(F)cc2c(=O)n(N)c(=O)n(C3CC3)c12.Cl` (relative stereo) yielded a melting point of 205 to 207 °C.

The values above are taken from patent US7582627B2, “3-aminoquinazolin-2,4-dione antibacterial agents” (Warner-Lambert Company, priority 2000, dated 2009).
